Test results published in the supplement of paper PMC11451515.

Tested on: P12-Ichikawa
Assay: cell viability relative to DMSO control; higher = less cytotoxic
Conditions: 48 h
Summary of the method: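 In 1536-well plates, 5 μl of leukemia cells were seeded per well: 500 cells/well for NOMO1 or SEM and 1000 cells/well for P12-Ichikawa. Each line had first been adapted for at least four passages in each medium. Library compounds in DMSO were pin-dosed at 11 threefold concentrations between 47 μM and 0.79 nM, and CellTiter-Glo One luminescence was read after 48 h at 37°C. Viability is a per-plate percentage relative to DMSO wells, with cell-free wells as background.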

[1] = HPLM + 10% dialyzed FBS, 0.000781 µM
[2] = HPLM + 10% dialyzed FBS, 0.00234 µM
[3] = HPLM + 10% dialyzed FBS, 0.00702 µM
[4] = HPLM + 10% dialyzed FBS, 0.0211 µM
[5] = HPLM + 10% dialyzed FBS, 0.0632 µM
[6] = HPLM + 10% dialyzed FBS, 0.19 µM
[7] = HPLM + 10% dialyzed FBS, 0.569 µM
[8] = HPLM + 10% dialyzed FBS, 1.71 µM
[9] = HPLM + 10% dialyzed FBS, 5.12 µM
[10] = HPLM + 10% dialyzed FBS, 15.4 µM
[11] = HPLM + 10% dialyzed FBS, 46.1 µM
[12] = RPMI 5 mM glucose + 10% FBS, 0.000781 µM
[13] = RPMI 5 mM glucose + 10% FBS, 0.00234 µM
[14] = RPMI 5 mM glucose + 10% FBS, 0.00702 µM
[15] = RPMI 5 mM glucose + 10% FBS, 0.0211 µM
[16] = RPMI 5 mM glucose + 10% FBS, 0.0632 µM
[17] = RPMI 5 mM glucose + 10% FBS, 0.19 µM
[18] = RPMI 5 mM glucose + 10% FBS, 0.569 µM
[19] = RPMI 5 mM glucose + 10% FBS, 1.71 µM
[20] = RPMI 5 mM glucose + 10% FBS, 5.12 µM
[21] = RPMI 5 mM glucose + 10% FBS, 15.4 µM
[22] = RPMI 5 mM glucose + 10% FBS, 46.1 µM
[23] = RPMI 5 mM glucose + 10% dialyzed FBS, 0.000781 µM
[24] = RPMI 5 mM glucose + 10% dialyzed FBS, 0.00234 µM
[25] = RPMI 5 mM glucose + 10% dialyzed FBS, 0.00702 µM
[26] = RPMI 5 mM glucose + 10% dialyzed FBS, 0.0211 µM
[27] = RPMI 5 mM glucose + 10% dialyzed FBS, 0.0632 µM
[28] = RPMI 5 mM glucose + 10% dialyzed FBS, 0.19 µM
[29] = RPMI 5 mM glucose + 10% dialyzed FBS, 0.569 µM
[30] = RPMI 5 mM glucose + 10% dialyzed FBS, 1.71 µM
[31] = RPMI 5 mM glucose + 10% dialyzed FBS, 5.12 µM
[32] = RPMI 5 mM glucose + 10% dialyzed FBS, 15.4 µM
[33] = RPMI 5 mM glucose + 10% dialyzed FBS, 46.1 µM

With `CC1=C(/C=C/C(C)=C/C=C/C(C)=C/C(=O)O)C(C)(C)CCC1` the cell viability [1] was 116%, the cell viability [2] was 125% and the cell viability [3] was 121%. The cell viability [4] was 121%, the cell viability [5] was 127% and the cell viability [6] was 119%. For the same molecule, the cell viability [7] was 132%, the cell viability [8] was 126% and the cell viability [9] was 123%. It also gave a cell viability [10] of 111% and a cell viability [11] of 104%.
For `CCOC(=O)[C@H]1O[C@@H]1C(=O)N[C@@H](CC(C)C)C(=O)NCCC(C)C`, the cell viability [1] was 123%, the cell viability [2] was 114% and the cell viability [3] was 121%. For the same molecule, the cell viability [4] was 127%, the cell viability [5] was 123% and the cell viability [6] was 123%. It also gave a cell viability [7] of 117%, a cell viability [8] of 116% and a cell viability [9] of 117%. It also gave a cell viability [10] of 108%, a cell viability [11] of 106% and a cell viability [12] of 128%. It also gave a cell viability [13] of 121%, a cell viability [14] of 119% and a cell viability [15] of 118%. The cell viability [16] was 124%, the cell viability [17] was 115% and the cell viability [18] was 127%. The cell viability [19] was 116%, the cell viability [20] was 115% and the cell viability [21] was 106%. For the same molecule, the cell viability [22] was 92.9%, the cell viability [23] was 116% and the cell viability [24] was 119%. The cell viability [25] was 115%, the cell viability [26] was 121% and the cell viability [27] was 124%. For the same molecule, the cell viability [28] was 119%, the cell viability [29] was 122% and the cell viability [30] was 119%. It also gave a cell viability [31] of 118%, a cell viability [32] of 109% and a cell viability [33] of 102%.
With `Cc1cccc(-c2[nH]c(C(C)(C)C)nc2-c2ccc3c(c2)OCO3)n1` the cell viability [1] was 105%, the cell viability [2] was 109% and the cell viability [3] was 110%. The cell viability [4] was 107%, the cell viability [5] was 102% and the cell viability [6] was 105%. It also gave a cell viability [7] of 110%, a cell viability [8] of 105% and a cell viability [9] of 100%. It also gave a cell viability [10] of 17.5%, a cell viability [11] of 11.1% and a cell viability [12] of 98.4%. For the same molecule, the cell viability [13] was 102%, the cell viability [14] was 92.8% and the cell viability [15] was 106%. For the same molecule, the cell viability [16] was 96.9%, the cell viability [17] was 97% and the cell viability [18] was 94.1%. The cell viability [19] was 96.2%, the cell viability [20] was 98.6% and the cell viability [21] was 14%. It also gave a cell viability [22] of 8.01%, a cell viability [23] of 102% and a cell viability [24] of 112%. The cell viability [26] was 108%, the cell viability [27] was 101% and the cell viability [28] was 101%. The cell viability [29] was 106%, the cell viability [30] was 95.9% and the cell viability [31] was 96%. The cell viability [32] was 37.1% and the cell viability [33] was 19.6%.
Work on `CCOC(=O)N[C@@H]1CC[C@@H]2[C@@H](C1)C[C@H]1C(=O)O[C@H](C)[C@H]1[C@H]2/C=C/c1ccc(-c2cccc(F)c2)cn1` yielded a cell viability [1] of 113%, a cell viability [2] of 114% and a cell viability [3] of 115%. The cell viability [4] was 114%, the cell viability [5] was 114% and the cell viability [6] was 117%. It also gave a cell viability [7] of 113%, a cell viability [8] of 120% and a cell viability [9] of 120%. It also gave a cell viability [10] of 115%, a cell viability [11] of 98.5% and a cell viability [23] of 114%. The cell viability [24] was 116%, the cell viability [25] was 124% and the cell viability [26] was 122%. For the same molecule, the cell viability [27] was 123%, the cell viability [28] was 120% and the cell viability [29] was 123%. For the same molecule, the cell viability [30] was 122%, the cell viability [31] was 120% and the cell viability [32] was 119%. For the same molecule, the cell viability [33] was 68.4%.
With `COc1ccc(C2(C#N)CCC(C(=O)O)CC2)cc1OC1CCCC1` (stereo not given) the cell viability [1] was 96.2%, the cell viability [2] was 105% and the cell viability [3] was 108%. It also gave a cell viability [4] of 108%, a cell viability [5] of 104% and a cell viability [6] of 107%. The cell viability [7] was 103%, the cell viability [8] was 99.2% and the cell viability [9] was 105%. The cell viability [10] was 108%, the cell viability [11] was 109% and the cell viability [12] was 94.8%. For the same molecule, the cell viability [13] was 97.6%, the cell viability [14] was 96.6% and the cell viability [15] was 95.2%. For the same molecule, the cell viability [16] was 96.8%, the cell viability [17] was 101% and the cell viability [18] was 106%. The cell viability [19] was 103%, the cell viability [20] was 97.9% and the cell viability [21] was 103%. The cell viability [22] was 96.2%, the cell viability [23] was 91.5% and the cell viability [24] was 95.6%. For the same molecule, the cell viability [25] was 92.8%, the cell viability [26] was 93.4% and the cell viability [27] was 101%. For the same molecule, the cell viability [28] was 102%, the cell viability [29] was 100% and the cell viability [30] was 108%. For the same molecule, the cell viability [31] was 94.3%, the cell viability [32] was 100% and the cell viability [33] was 87.9%.
`Oc1ccc(-c2ccc(-c3cc(Nc4cccc(CNC5CC5)c4)[nH]n3)cc2)c(O)c1` showed a cell viability [1] of 104%, a cell viability [2] of 103% and a cell viability [3] of 112%. It also gave a cell viability [4] of 104%, a cell viability [5] of 96.1% and a cell viability [6] of 112%. It also gave a cell viability [7] of 104%, a cell viability [8] of 92.3% and a cell viability [9] of 32.2%. It also gave a cell viability [10] of 38%, a cell viability [11] of 64.1% and a cell viability [12] of 99.4%. For the same molecule, the cell viability [13] was 98.1%, the cell viability [14] was 115% and the cell viability [15] was 114%. The cell viability [16] was 98.5%, the cell viability [17] was 116% and the cell viability [18] was 108%. For the same molecule, the cell viability [19] was 89%, the cell viability [20] was 23.2% and the cell viability [21] was 13.5%. For the same molecule, the cell viability [22] was 23.4%, the cell viability [23] was 101% and the cell viability [24] was 114%. For the same molecule, the cell viability [25] was 105%, the cell viability [26] was 125% and the cell viability [27] was 111%. For the same molecule, the cell viability [28] was 112%, the cell viability [29] was 104% and the cell viability [30] was 101%. It also gave a cell viability [31] of 58.8%, a cell viability [32] of 32.9% and a cell viability [33] of 43.2%.
With `Oc1ccc([C@@H]2Oc3ccc(O)cc3[C@@H]3CCC[C@@H]32)cc1` the cell viability [1] was 86.9%, the cell viability [2] was 90.2% and the cell viability [3] was 94.7%. It also gave a cell viability [4] of 93.5%, a cell viability [5] of 92.7% and a cell viability [6] of 95.1%. For the same molecule, the cell viability [7] was 94.3%, the cell viability [8] was 90.5% and the cell viability [9] was 87.4%. The cell viability [10] was 40.6%, the cell viability [11] was 12.2% and the cell viability [12] was 88.5%. The cell viability [13] was 82.6%, the cell viability [14] was 92.7% and the cell viability [15] was 88.7%. For the same molecule, the cell viability [16] was 90%, the cell viability [17] was 87% and the cell viability [18] was 85.5%. It also gave a cell viability [19] of 85.4%, a cell viability [20] of 82.3% and a cell viability [21] of 34.1%. For the same molecule, the cell viability [22] was 12%, the cell viability [23] was 76.8% and the cell viability [24] was 80.7%. The cell viability [25] was 87.2%, the cell viability [26] was 85.6% and the cell viability [27] was 82.8%. For the same molecule, the cell viability [28] was 76.6%, the cell viability [29] was 82.4% and the cell viability [30] was 76.5%. The cell viability [31] was 72.8%, the cell viability [32] was 44.6% and the cell viability [33] was 14.4%.
For `Nc1nc(N)c(N=O)c(OCC2CCCCC2)n1`, the cell viability [1] was 89.4%, the cell viability [2] was 90.3% and the cell viability [3] was 88.9%. For the same molecule, the cell viability [4] was 90.6%, the cell viability [5] was 97.6% and the cell viability [6] was 92.2%. For the same molecule, the cell viability [7] was 88.3%, the cell viability [8] was 81.1% and the cell viability [9] was 75.6%. For the same molecule, the cell viability [10] was 60.6%, the cell viability [11] was 40.1% and the cell viability [12] was 86%. It also gave a cell viability [13] of 87.3%, a cell viability [14] of 86.9% and a cell viability [15] of 93%. For the same molecule, the cell viability [16] was 98.2%, the cell viability [17] was 95.3% and the cell viability [18] was 84.6%. It also gave a cell viability [19] of 78.7%, a cell viability [20] of 53.8% and a cell viability [21] of 45%. It also gave a cell viability [22] of 34.7%, a cell viability [23] of 84.8% and a cell viability [24] of 89.2%. The cell viability [25] was 85%, the cell viability [26] was 86.9% and the cell viability [27] was 100%. It also gave a cell viability [28] of 88.5%, a cell viability [29] of 91.3% and a cell viability [30] of 72.3%. It also gave a cell viability [31] of 59%, a cell viability [32] of 48.9% and a cell viability [33] of 35.9%.
